From ChEMBL document CHEMBL1136283, “Synthesis and glycosidase inhibitory activity of some N-substituted 6-deoxy-5a-carba-beta-DL- and L-galactopyranosylamines” (Bioorg Med Chem Lett, 2003)

Columns and labels:
[1] = Inhibitory activity against beta-glucosidase in almond; parameters: species or system Prunus dulcis
Beta-galactosidase = target: T1, Beta-galactosidase (Bos taurus, UniProt Q58D55); experiment: Inhibitory activity against beta-galactosidase in bovine liver; format: tissue-based
T1 sequence (Q58D55 whole entry): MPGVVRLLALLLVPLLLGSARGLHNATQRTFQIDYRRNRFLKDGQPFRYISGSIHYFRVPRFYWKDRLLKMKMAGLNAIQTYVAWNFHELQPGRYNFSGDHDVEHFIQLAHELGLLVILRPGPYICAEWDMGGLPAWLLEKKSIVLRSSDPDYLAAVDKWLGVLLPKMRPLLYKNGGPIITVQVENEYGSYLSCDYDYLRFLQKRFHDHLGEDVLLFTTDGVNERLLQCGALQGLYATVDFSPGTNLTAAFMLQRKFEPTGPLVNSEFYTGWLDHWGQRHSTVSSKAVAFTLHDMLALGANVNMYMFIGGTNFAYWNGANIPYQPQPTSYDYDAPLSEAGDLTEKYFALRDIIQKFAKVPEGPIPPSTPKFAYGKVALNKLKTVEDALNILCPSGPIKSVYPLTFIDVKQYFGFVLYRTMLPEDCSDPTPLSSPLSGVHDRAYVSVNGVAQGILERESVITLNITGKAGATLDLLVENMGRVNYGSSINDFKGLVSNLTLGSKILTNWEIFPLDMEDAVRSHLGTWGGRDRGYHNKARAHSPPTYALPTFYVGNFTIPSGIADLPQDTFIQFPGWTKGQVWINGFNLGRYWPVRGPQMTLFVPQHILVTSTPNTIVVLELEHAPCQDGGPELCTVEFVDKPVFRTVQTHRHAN

[2] = Inhibitory activity against beta-glucosidase in almond at pH 5.5; parameters: species or system Prunus dulcis
[3] = Inhibitory activity against beta-glucosidase in almond at pH 6.8; parameters: species or system Prunus dulcis

`CCCCCCNC1CC(C)C(O)C(O)C1O` (stereo not drawn) gave an IC50 [1] of 730 nM and an IC50 (Beta-galactosidase) of 3700 nM.
`CCCCCCCCCCN[C@H]1CC(C)[C@@H](O)C(O)[C@@H]1O` (stereo partly drawn) gave an IC50 [1] of 16600 nM and an IC50 (Beta-galactosidase) of 1000 nM.
Work on `CCCCCCCCCCNC1CC(C)C(O)C(O)C1O` (stereo not drawn) yielded an IC50 [1] of 2000 nM, a Ki [1] of 400 nM and an IC50 (Beta-galactosidase) of 200 nM. For the same compound, the Ki (Beta-galactosidase) was 9 nM.
For `CCCCCCCCN[C@H]1CC(C)[C@@H](O)C(O)[C@@H]1O` (stereo partly drawn), the IC50 [1] was 14700 nM and the IC50 (Beta-galactosidase) was 3700 nM.
With `CCCCCCCCNC1CC(C)C(O)C(O)C1O` (stereo not drawn) the IC50 [1] was 1500 nM, the Ki [1] was 3200 nM and the IC50 (Beta-galactosidase) was 700 nM. The Ki (Beta-galactosidase) was 110 nM.
Compound `CC1C[C@H](NCCCCc2ccccc2)[C@@H](O)C(O)[C@@H]1O` (stereo partly drawn) has an IC50 [1] of 10200 nM and an IC50 (Beta-galactosidase) of 2400 nM.
With `CC1CC(NCCCCc2ccccc2)C(O)C(O)C1O` (stereo not drawn) the IC50 [1] was 1400 nM, the Ki [1] was 1200 nM and the IC50 (Beta-galactosidase) was 900 nM. The Ki (Beta-galactosidase) was 46 nM.
In the case of `CCCCCCCCCCCCN[C@H]1CC(C)[C@@H](O)C(O)[C@@H]1O` (stereo partly drawn), the IC50 [1] is reported as 3600 nM and the IC50 (Beta-galactosidase) is reported as 3000 nM.
For `C[C@@H]1CC(NCCc2ccccc2)[C@@H](O)[C@@H](O)[C@@H]1O` (stereo in doubt), the IC50 [1] was 380 nM, the Ki [1] was 57 nM and the Ki [2] was 390 nM. It also gave a Ki [3] of 57 nM and an IC50 (Beta-galactosidase) of 5700 nM.
`C[C@@H]1CC(NCCc2ccccc2)[C@@H](O)[C@@H](O)[C@@H]1O` (stereo in doubt; 9e (D)) showed a Ki [3] of 110 nM.
